# Measurements from US12268697B2, “Oxysterols and methods of use thereof” (Sage Therapeutics, Inc., priority 2015, dated 2025).
# Molecular target: T1, GlunN1/GluN2A glutamate receptors (Homo sapiens, UniProt Q05586+Q12879)
# T1 construct: expressed in transfected cells
# Experiment: Whole-cell patch clamp of mammalian cells (Ionworks Barracuda, IWB), NMDA potentiation
# Type: cell-based
# Conditions: 3 μM test article; HEK293 cells expressing human GRIN1/GRIN2A; co-application with EC20 L-glutamate and 30 μM glycine
# Experimental: NMDA potentiation was assessed using either whole cell patch clamp of mammalian cells which expressed NMDA receptors.
# Whole-Cell Patch Clamp of Mammalian Cells (Ionworks Barracuda (IWB)
# The whole-cell patch-clamp technique was used to investigate the effects of compounds on GlunN1/GluN2A glutamate receptors expressed in mammalian cells.
# HEK293 cells were transformed with adenovirus 5 DNA and transfected with cDNA encoding the human GRIN1/GRIN2A genes. Stable transfectants were selected using G418 and Zeocin-resistance genes incorporated into the expression plasmid and selection pressure maintained with G418 and Zeocin in the medium. Cells were cultured in Dulbecco's Modified Eagle Medium/Nutrient Mixture (D-MEM/F-12) supplemented with 10% fetal bovine serum, 100 μg/ml penicillin G sodium, 100 μg/ml streptomycin sulphate, 100 μg/ml Zeocin, 5 μg/ml blasticidin and 500 μg/ml G418.
# Test article effects were evaluated in 8-point concentration-response format (4 replicate wells/concentration). […]
# • a) Intracellular solution (mM): 50 mM CsCl, 90 mM CsF, 2 mM MgCl2, 5 mM EGTA, 10 mM HEPES. […] Cell suspension will be pipetted into the wells (9 μL per well) of the PPC planar electrode. • b) Whole-cell recording configuration will be established via patch perforation with membrane currents recorded by on-board patch clamp amplifiers. • c) Two recordings (scans) will be performed. […]
# T1 sequence (Q12879 23-1464, other chains not shown): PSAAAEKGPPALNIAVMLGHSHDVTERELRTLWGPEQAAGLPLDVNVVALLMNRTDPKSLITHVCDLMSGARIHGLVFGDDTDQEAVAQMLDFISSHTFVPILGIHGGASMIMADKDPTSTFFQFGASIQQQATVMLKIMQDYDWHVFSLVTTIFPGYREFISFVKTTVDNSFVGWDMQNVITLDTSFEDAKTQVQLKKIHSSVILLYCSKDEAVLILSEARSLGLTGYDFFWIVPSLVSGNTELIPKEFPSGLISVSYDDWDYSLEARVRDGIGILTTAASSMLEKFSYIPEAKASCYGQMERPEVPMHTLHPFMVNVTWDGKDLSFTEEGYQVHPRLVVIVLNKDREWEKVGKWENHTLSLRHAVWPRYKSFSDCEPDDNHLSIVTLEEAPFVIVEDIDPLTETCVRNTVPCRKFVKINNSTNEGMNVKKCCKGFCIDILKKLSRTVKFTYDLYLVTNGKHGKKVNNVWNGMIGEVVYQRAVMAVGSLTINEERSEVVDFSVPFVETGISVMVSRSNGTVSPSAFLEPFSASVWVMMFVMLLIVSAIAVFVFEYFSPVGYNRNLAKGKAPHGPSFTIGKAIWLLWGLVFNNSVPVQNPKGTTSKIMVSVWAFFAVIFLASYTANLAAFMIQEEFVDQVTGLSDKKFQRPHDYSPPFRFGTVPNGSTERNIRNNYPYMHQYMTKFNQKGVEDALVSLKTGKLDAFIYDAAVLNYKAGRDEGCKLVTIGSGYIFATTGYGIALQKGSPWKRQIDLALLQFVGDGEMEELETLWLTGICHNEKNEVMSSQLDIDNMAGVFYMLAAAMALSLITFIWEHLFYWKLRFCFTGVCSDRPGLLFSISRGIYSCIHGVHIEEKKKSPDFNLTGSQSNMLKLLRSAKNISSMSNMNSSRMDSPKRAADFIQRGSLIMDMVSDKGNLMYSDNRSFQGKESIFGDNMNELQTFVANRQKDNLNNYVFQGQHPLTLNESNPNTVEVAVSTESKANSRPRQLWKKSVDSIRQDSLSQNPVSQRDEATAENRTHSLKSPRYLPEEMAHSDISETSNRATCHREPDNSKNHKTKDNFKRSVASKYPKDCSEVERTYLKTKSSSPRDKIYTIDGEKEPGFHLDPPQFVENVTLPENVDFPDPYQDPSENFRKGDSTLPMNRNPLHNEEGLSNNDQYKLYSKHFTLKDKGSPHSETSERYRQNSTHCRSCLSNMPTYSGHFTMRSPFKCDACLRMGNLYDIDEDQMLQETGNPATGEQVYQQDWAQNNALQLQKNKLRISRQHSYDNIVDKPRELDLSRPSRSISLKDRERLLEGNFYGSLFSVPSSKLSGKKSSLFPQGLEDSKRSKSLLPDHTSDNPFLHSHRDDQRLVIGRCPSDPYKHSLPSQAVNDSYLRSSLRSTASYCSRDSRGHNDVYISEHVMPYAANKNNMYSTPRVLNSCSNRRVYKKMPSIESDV
smiles,measurement,value
C[C@H](CCC[C@@H](C)O)[C@H]1CC[C@H]2[C@@H]3CC[C@H]4C[C@@](C)(O)CC[C@]4(C)[C@H]3CC[C@]12C [Compound 24],GluN2A PCA IWB Ephys % potentiation at 3 μM,B (“B” indicates potentiation of >100%)
